Results published in patent US6291461A, “Stephacidin antitumor antibiotics” (Bristol-Myers Squibb Company, priority 1999, dated 2001).

Key:
A2780 ovarian, parental = assay: In vitro cytotoxicity (MTS assay), A2780; assay type: cell-based; details: Homo sapiens, A2780, 72 h
Description: (§1) In vitro cytotoxicity was assessed in human carcinoma cells by the MTS (3-(4,5-dimethylthiazol-2-yl)-5-(3-carboxymethoxyphenyl)-2-(4-sulphenyl)-2H-tetrazolium, inner salt) assay (5). Cells were plated at 4,000 cell/well in 96 well microtiter plates and 24 hours later drugs were added and serial diluted. The cells were incubated at 37° form 72 hours at which time the tetrazolium dye, MTS at 333 μg/ml (final concentration),in combination with the electron coupling agent phenazine methosulfate at 25 μM (final concentration) was added. A dehydrogenase enzyme in live cells reduces the MTS to a form that absorbs light at 492 nm which can be quantitated spectrophotometrically. The greater the absorbance the greater the number of live cells. The results are expressed as an IC50, which is the drug concentration required to inhibit cell proliferation (i.e. absorbance at 492 nm) to 50% of that of untreated control cells.

[1] = system: HCT116/mdr+ colon, overexpresses Mdr+; assay: In vitro cytotoxicity (MTS assay), HCT116/mdr+; assay type: cell-based; details: Homo sapiens, HCT-116, 72 h
Description: as §1

[2] = system: HCT116/Topo colon, resistant to etoposide; assay: In vitro cytotoxicity (MTS assay), HCT116/Topo; assay type: cell-based; details: Homo sapiens, HCT-116, 72 h
Description: as §1

HCT116 colon, parental = assay: In vitro cytotoxicity (MTS assay), HCT116; assay type: cell-based; details: Homo sapiens, HCT-116; HCT116, 72 h
Description: as §1

[3] = system: A2780/Tax ovarian, Taxol resistant; assay: In vitro cytotoxicity (MTS assay), A2780/Tax; assay type: cell-based; details: Homo sapiens, 72 h
Description: as §1

[4] = system: A2780/DDP ovarian, mutp53/bcl2+; assay: In vitro cytotoxicity (MTS assay), A2780/DDP; assay type: cell-based; details: Homo sapiens, 72 h
Description: as §1

[5] = system: SKBR3 breast, estradiol-independent; assay: In vitro cytotoxicity (MTS assay), SKBR3; assay type: cell-based; details: Homo sapiens, SK-BR-3; SKBR3, 72 h
Description: as §1

[6] = system: PC3 prostate, testosterone independent; assay: In vitro cytotoxicity (MTS assay), PC3; assay type: cell-based; details: Homo sapiens; PC3, 72 h
Description: as §1

human tumor cell lines = assay: In vitro cytotoxicity against several human tumor cell lines; assay type: cell-based
Description: as §1

A2780 cells = assay: Apoptosis determination (TUNEL assay), A2780; assay type: cell-based, human; details: for % of A2780 Cells in Apoptosis: 24 h treatment; for induction of apoptosis: (A2780)
Description: (§2) Cells were plated, incubated overnight, treated with compound for 24 hours then harvested by trypsinization. For cell cycle analysis cells were trypsinized, permeated, stained with 50 ug/ml propidium iodide and analyzed by FACS. For apoptosis evaluation (TUNEL assay) cells were permeated and reacted with TdT and fluoresceinated dUTP for 3 hours following the procedure recommended by the APO-Direct kit (Pharmingen).

[7] = system: MCF-7 breast, estradiol sensitive; assay: In vitro cytotoxicity (MTS assay), MCF-7; assay type: cell-based; details: Homo sapiens, MCF7; MCF-7, 72 h
Description: as §1

LX-1 lung, sensitive = assay: In vitro cytotoxicity (MTS assay), LX-1; assay type: cell-based; details: Homo sapiens; LX-1, 72 h
Description: as §1

[8] = system: LNCaP prostate, testosterone sensitive; assay: In vitro cytotoxicity (MTS assay), LNCaP; assay type: cell-based, human; details: for IC50: Homo sapiens, LNCaP, 72 h
Description: as §1

LNCaP cells = assay: Apoptosis determination (TUNEL assay), LNCaP; assay type: cell-based, human; details: for % of LNCaP Cells in Apoptosis: 24 h treatment; for induction of apoptosis: testosterone sensitive (LNCaP) cells
Description: as §2

p53, mdr or bcl2 = assay: Mechanism of action: mediation by p53, mdr or bcl2; assay type: cell-based
Solubility = assay type: physicochemical
[9] = system: tubulin or topoisomerase II; assay: Mechanism of action: tubulin or topoisomerase II

SMILES | IC50 (A2780 ovarian, parental) [nM] | IC50 [1] [nM] | IC50 [2] [nM] | IC50 (HCT116 colon, parental) [nM] | IC50 [3] [nM] | IC50 [4] [nM] | IC50 [5] [nM] | IC50 [6] [nM] | % of A2780 Cells in Apoptosis (A2780 cells; 0.1 x 72 hour cytotoxic IC50) | % of A2780 Cells in Apoptosis (A2780 cells; 1 x 72 hour cytotoxic IC50) | % of A2780 Cells in Apoptosis (A2780 cells; 5 x 72 hour cytotoxic IC50) [%] | % of A2780 Cells in Apoptosis (A2780 cells; 10 x 72 hour cytotoxic IC50) [%] | % of A2780 Cells in Apoptosis (A2780 cells; 20 x 72 hour cytotoxic IC50) [%] | induction of apoptosis (A2780 cells) | IC50 [7] [nM] | IC50 (LX-1 lung, sensitive) [nM] | IC50 [8] [nM] | % of LNCaP Cells in Apoptosis (LNCaP cells; 0.1 x 72 hour cytotoxic IC50) [%] | % of LNCaP Cells in Apoptosis (LNCaP cells; 1 x 72 hour cytotoxic IC50) [%] | % of LNCaP Cells in Apoptosis (LNCaP cells; 5 x 72 hour cytotoxic IC50) [%] | also measured
CC1(C)C=Cc2c(ccc3c4c([nH]c23)C(C)(C)C2CC35CCCN3C(=O)C2(C4)NC5=O)O1 (stereo not shown) [Stephacidin A] | 4000 | 6700 | 13100 | 2100 | 3600 | 6800 | 2150 | 2100 | 1% | .8% | 21 | 14 | 15 | potent inducers of apoptosis | 4200 | 4220 | 1000 | 0.02 | 0.00 | 0.15 | in vivo criteria for acceptable activity (human tumor cell lines; potency judged against applicant's criteria): within our in vivo criteria for acceptable activity; fold less potent (human tumor cell lines; relative potency in vitro, versus the other stephacidin): 10 fold; in vitro cytotoxicity (human tumor cell lines; several human tumor cell lines (Table 3)): potent in vitro cytotoxicity; % of LNCaP Cells in Apoptosis (LNCaP cells; 10 x 72 hour cytotoxic IC50): 5.75%; % of LNCaP Cells in Apoptosis (LNCaP cells; 20 x 72 hour cytotoxic IC50): 11.81%; induction of apoptosis (LNCaP cells): potent inducers of apoptosis
CC1(C)C=Cc2c(ccc3c2[N+]([O-])=C2C(C)(C)C4CC56CCCN5C(=O)C4(NC6=O)C4N5C(=O)C67CCCN6C(=O)C56C(C7)C(C)(C)c5c(c7ccc8c(c7n5O)C=CC(C)(C)O8)C6C234)O1 (stereo not shown) [Stephacidin B] | 330 | 460 | 420 | 460 | 260 | 430 | 320 | 370 | .5% | .2% | 1.0 | 33 | 5 | potent inducers of apoptosis | 270 | 380 | 60 | 0.02 | 0.00 | 0.05 | effects mediated by p53, mdr or bcl2 (p53, mdr or bcl2): not mediated by p53, mdr or bcl2; Solubility (Solubility; hexane): insoluble; Solubility (Solubility; methanol, chloroform, acetone, acetonitrile, dimethyl sulfoxide, acetonitrile/methanol (1:1)): Soluble; Solubility (Solubility; water): insoluble; tubulin or topoisomerase II mediated [9]: not tubulin or topoisomerase II mediated; selectivity in testosterone dependent LNCaP cells ([8]; LNCaP versus other cell lines): Good selectivity; % of LNCaP Cells in Apoptosis (LNCaP cells; 10 x 72 hour cytotoxic IC50): 4.52%; % of LNCaP Cells in Apoptosis (LNCaP cells; 20 x 72 hour cytotoxic IC50): 11.13%; induction of apoptosis (LNCaP cells): potent inducers of apoptosis
